In patent publication US20110124678A1, “TREATMENT WITH ALPHA 7-SELECTIVE LIGANDS” (Targacept, Inc., priority 2007, published 2011):
Entries after “also recorded” stand apart in the source; their conditions may differ.

Assays:
[1] = tested on: db/db mice; experiment: metabolic phenotyping of obese db/db mice (PTP1B wild type or knockout) treated with α7 agonist; assay type: in vivo; settings: for Glucose Tolerance Test (GTT): fat db/db PTP-1B WT mice; for plasma TNFα / plasma blood glucose (BG) / plasma glycosylated hemoglobin (Hb1ac) / plasma triglycerides (TG) / body mass / food consumption: fat db/db mice; for plasma triglycerides (TG): PTP-1B wild type; for body mass / food consumption: increase vs lean; for weight gain: obese db− mice, seven weeks of treatment; for food intake decrease induced by the α7 agonist / treatment-induced decrease in plasma glucose: antagonist or inhibitor given with α7 agonist; for body weight gain / weight loss induced by the α7 agonist: antagonist or inhibitor given with α7 agonist (MLA 3 mg/kg gavage; AG-490 1 mg/kg IP)
Excerpt: Body Weight Gain and Food Intake. Several protein tyrosine phosphatases (PTPases) such as PTP1B, LAR, SHP-2 and PTEN have been implicated in the development of insulin resistance.
α7 agonist on Obesity. Animal Models: Parental strains of mice used in these studies were the leptin receptor deficient db/db mice on a C57BL6 background obtained from Jackson Laboratories and PTP1B-null mice on a mixed C57BL6/Balb C background from Dr. Michel Tremblay at the Cancer Institute at McGill University in Montreal, Canada. Because obese db/db mice are infertile, mice were generated as dual heterozygotes, heterozygous for both the mutant leptin receptor and the deleted PTP1B. Dual heterozygotes were interbred, producing 1:4 obese mice and 1:4 PTP-1B null mice. In this breeding configuration 1:16 were dual KO mice. In the fourth generation, mice heterozygous for both genes were bred to PTP-1B null mice heterozygous for the mutant db allele. In this breeding configuration 1:4 mice were obese and 1:8 were dual KO mice. For reasons of parsimony, heterozygotes were preferred to wild-types over controls. Dual heterozygous littermates were used as lean controls and littermates heterozygous for db were used as lean PTP1B KO controls.
Mouse genotyping: At 3 weeks of age, DNA was obtained by tail clip. The genomic DNA from tail clip was used to screen for the presence of the mutant leptin receptor and deletion cassette of PTP-1B using the Polymerase Chain Reaction. Specific genotypes were determining by resolving PCR products with agarose gel electrophoresis. Deletion of PTP-1B was verified by Western analysis using an anti-PTP-1B antibody from Upstate Biotechnology.
In selected cohorts, the α7 antagonist MLA was also given via gavage, concurrently, at 3 mg/kg daily. The JAK2 kinase inhibitor (AG-490) was administered intraperitoneally (IP) at 1 mg/kg daily. Fasting glucose was measured once a week after food withdrawal, with a Precision XL glucometer using tail vein bleeding. HbA1c levels were also measured from these samples with the A1C kit from Metrika, Inc. To assess glucose tolerance, the mice were anesthetized with 2% isoflurane and the left carotid artery and jugular vein cannulated after an overnight fast. A 10 mg bolus of glucose was injected intravenously (iv) via the jugular vein and blood glucose measured every 5 minutes for 40 minutes in a drop of blood from the carotid line. For measurements of blood plasma analytes, a separate group of fasted mice were anesthetized by isoflurane in a rapid induction chamber and swiftly decapitated. Blood was collected in heparin and rapidly centrifuged at 4° C. to remove cells and to obtain plasma, and the samples were frozen for later analyses. Plasma TNF-α concentrations were determined using ELISA assay kits from eBioscience and plasma triglyceride levels were determined using the L-Type TG H test (Wako Diagnostics), an in vitro assay for the quantitative determination of triglycerides in serum or plasma. All data are expressed as mean and SEM. Differences among all groups were compared by One Way ANOVA.

[2] = biological target: T1, human α7 nicotinic receptor (Homo sapiens, UniProt P36544); experiment: electrophysiology functional assay in Xenopus laevis oocytes; assay type: cell-based; settings: Xenopus laevis oocytes transiently expressing human α7 nicotinic receptor
T1 construct: expressed in transfected cells; host or cells: Xenopus laevis oocytes
T1 sequence (P36544 23-502): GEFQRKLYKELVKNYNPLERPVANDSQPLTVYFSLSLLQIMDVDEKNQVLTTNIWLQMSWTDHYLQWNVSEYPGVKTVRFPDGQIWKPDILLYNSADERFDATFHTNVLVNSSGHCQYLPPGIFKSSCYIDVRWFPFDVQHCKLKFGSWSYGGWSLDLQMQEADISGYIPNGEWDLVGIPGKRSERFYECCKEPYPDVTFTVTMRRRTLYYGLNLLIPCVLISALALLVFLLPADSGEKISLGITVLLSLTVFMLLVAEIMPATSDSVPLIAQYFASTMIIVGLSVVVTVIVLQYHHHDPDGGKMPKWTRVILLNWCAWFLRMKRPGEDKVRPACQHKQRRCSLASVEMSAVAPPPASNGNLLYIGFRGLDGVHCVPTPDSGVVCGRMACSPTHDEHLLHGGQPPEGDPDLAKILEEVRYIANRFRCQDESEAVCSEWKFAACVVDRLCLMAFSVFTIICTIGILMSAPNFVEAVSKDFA

[3] = tested on: db/db mice; experiment: simvastatin and Compound A in db/db mice, metabolic phenotyping; assay type: in vivo; settings: fat db/db mice, statin study
Procedure: Animal Models and Metabolic Phenotyping: […] Growth rates of mice were generated by measuring body weight twice weekly for 10 weeks. Daily food intake was measured in mice metabolic cages obtained from Fisher. To assess glucose tolerance, mice were anesthetized with 2% isoflurane and the left carotid artery and jugular vein cannulated after an overnite fast. Fasting blood glucose was assessed as the initial two measurements in the anesthetized mice. A second measurement was used to determine HbA1c levels using the […] kit from Metrika Inc. A 10 mg bolus of glucose was injected into each mouse and blood glucose measure by a drop of blood from the carotid line every 5 minutes for 40 minutes. Glucose was measured with a Precision XL glucometer. At the end of the experiment mice were euthanized by isoflurane overdose. In a second group of mice, fasted mice were anesthetized by isofluorance in a rapid induction chamber and swiftly decapitated. Trunk blood was collected in heparin and rapidly centrifuged to remove blood cells and obtain plasma. Samples were then collected for analyses. Plasma cholesterol, free fatty acids and triglycerides were determined using colorimetric assays from Wako Chemical while plasma TNFα concentration was determined using ELISA assay kits from eBioscience.

[4] = difference between genotypes under treatment
[5] = obese mice, antagonist given with α7 agonist

SMILES	Glucose Tolerance Test (GTT) [1]	plasma TNFα [1]	plasma blood glucose (BG) [1]	plasma glycosylated hemoglobin (Hb1ac) [1]	plasma triglycerides (TG) [1]	body mass [1]	food consumption [1]	weight gain [1]	food intake decrease induced by the α7 agonist ([1]; obese mice)	treatment-induced decrease in plasma glucose ([1]; obese mice)	body weight gain / weight loss induced by the α7 agonist ([1]; obese mice)	other results
O=C(N[C@@H]1C2CCN(CC2)[C@H]1Cc1cccnc1)c1cc2ccccc2o1 (single isomer, unassigned) [Compound C]	normalize insulin resistance glucose tolerance test; also recorded: significant increase in deposition	reduce pro-inflammatory cytokines; also recorded: significantly inhibited	normalize glucose levels; also recorded: significantly inhibited	decrease glycated hemoglobin; also recorded: significantly inhibited	reduce triglycerides; also recorded: significantly inhibited	significantly inhibited	significantly inhibited	reduce weight gain	–	–	–	body mass, fat wild type vs fat PTP-1B KO [1, 4]: no significant difference; food consumption, fat wild type vs fat PTP-1B KO [1, 4]: no significant difference; plasma blood glucose, fat wild type vs fat PTP-1B KO [1, 4]: no significant difference; Emax [2]: > 50%
N#C/C(=C/c1ccc(O)c(O)c1)C(=O)NCc1ccccc1 [AG-490, reference compound]	–	–	–	–	–	–	–	–	significantly inhibited; also recorded: partially inhibits effects of Compound A	significantly prevented	significantly inhibited	–
Cc1ccc(C(=O)N[C@@H]2C3CCN(CC3)[C@H]2Cc2cccnc2)s1 [Compound A, 5-methyl-N-[(2S,3R)-2-(pyridin-3-ylmethyl)-1-azabicyclo[2.2.2]oct-3-yl]thiophene-2-carboxamide]	normalize insulin resistance glucose tolerance test	reduce pro-inflammatory cytokines	normalize glucose levels	decrease glycated hemoglobin	reduce triglycerides	–	–	reduce weight gain	–	–	–	% glycated hemoglobin (% Hb1ac) [3]: significantly inhibited; body mass [3]: significantly inhibited; food consumption [3]: significantly inhibited; plasma TNFα [3]: significantly inhibited; plasma blood glucose (BG) [3]: significantly inhibited; plasma cholesterol (Chol) [3]: significantly inhibited; plasma triglycerides (TG) [3]: significantly inhibited
O=C(N[C@@H]1C2CCN(CC2)[C@H]1Cc1cccnc1)c1ccc(-c2ccccn2)s1 [Compound B, (2S,3R)—N-(2-((3-pyridinyl)methyl)-1-azabicyclo[2.2.2]oct-3-yl)-5-(2-pyridinyl)thiophene-2-carboxamide]	normalize insulin resistance glucose tolerance test	reduce pro-inflammatory cytokines; also recorded: significantly inhibited	normalize glucose levels; also recorded: significantly inhibited	decrease glycated hemoglobin; also recorded: significantly inhibited	reduce triglycerides; also recorded: significantly inhibited	significantly inhibited	significantly inhibited	reduce weight gain	–	–	–	–
CCN1C[C@]2(COC(=O)c3ccccc3N3C(=O)C[C@H](C)C3=O)CC[C@H](OC)[C@@]34[C@@H]5C[C@H]6[C@H](OC)[C@@H]5[C@](O)(C[C@@H]6OC)[C@](O)([C@@H](OC)[C@H]23)[C@@H]14 [MLA, reference compound]	–	–	–	–	–	–	–	–	no significant differences	no significant decrease in plasma glucose	no significant differences	decrease of plasma TNF-α by the α7 agonist [1, 5]: blocked; increased insulin sensitivity induced by the α7 agonist [1, 5]: abrogated; also recorded: suppressed; normalization of triglycerides by the α7 agonist [1, 5]: blocked
